Tests used:
Type in all cases: binding
[1] = biological target: MAA (Maackia amurensis agglutinin); test: COIN-CaR-nMS; settings: native and all α2-3-linked N-glycan natural libraries and purified 3SL, 3SLN; pH 6.9
GAL-7 [2] = biological target: T1, GAL-7 (Homo sapiens, UniProt P47929); test: Direct native ESI-MS of the GAL-7 homodimer with a mixture of ten glycans (G2, G5-G13), 200 mM ammonium acetate, pH 6.9.; settings: SD, n = 8; read-out: Kd (nMS), Table S4
T1 construct: gene LGALS7; homodimer (monomer MW 14.94 kDa)
T1 sequence (P47929 whole entry): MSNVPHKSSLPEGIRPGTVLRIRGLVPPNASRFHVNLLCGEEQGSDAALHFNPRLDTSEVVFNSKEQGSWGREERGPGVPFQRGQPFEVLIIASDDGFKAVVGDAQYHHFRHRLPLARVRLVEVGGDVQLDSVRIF

GAL-7 [3] = biological target: T1, GAL-7; test: COIN-nMS of the GAL-7 homodimer with a mixture of ten glycans (G2, G5-G13), 200 mM ammonium acetate, pH 6.9.; settings: SD, n = 8; read-out: Kd (COIN-nMS), Table S4
DC-SIGN CRD [4] = biological target: T2, DC-SIGN CRD (Homo sapiens, UniProt Q9NNX6); test: Direct native ESI-MS (submicron emitters) with a mixture of ten glycans (G2, G5, G10, G14-G20), 200 mM ammonium acetate with 2.5 mM calcium salt, pH 7.4.; set-up: gene CD209; carbohydrate recognition domain, residues 250-404, MW 17 794 Da; settings: SD, n = 6; read-out: Kd (nMS), Table S5
T2 sequence (Q9NNX6 250-404): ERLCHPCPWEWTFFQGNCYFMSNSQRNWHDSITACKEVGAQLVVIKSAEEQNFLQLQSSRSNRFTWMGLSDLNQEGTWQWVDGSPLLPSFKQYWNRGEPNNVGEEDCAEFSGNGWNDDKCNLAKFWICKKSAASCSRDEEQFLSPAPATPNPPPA

DC-SIGN CRD [5] = biological target: T2, DC-SIGN CRD; test: COIN-nMS (submicron emitters) with a mixture of ten glycans (G2, G5, G10, G14-G20), 200 mM ammonium acetate with 2.5 mM calcium salt, pH 7.4.; set-up: gene CD209; carbohydrate recognition domain, residues 250-404, MW 17 794 Da; settings: SD, n = 6; read-out: Kd (COIN-nMS), Table S5
GAL-3C [6] = biological target: T3, GAL-3C (Homo sapiens, UniProt P17931); test: Direct native ESI-MS with a mixture of ten glycans (G2, G5-G13), 200 mM ammonium acetate, pH 6.9.; set-up: gene LGALS3; C-terminal carbohydrate recognition domain fragment, residues 107-250; settings: SD, n = 8; read-out: Kd (nMS), Table S3
T3 sequence (P17931 107-250): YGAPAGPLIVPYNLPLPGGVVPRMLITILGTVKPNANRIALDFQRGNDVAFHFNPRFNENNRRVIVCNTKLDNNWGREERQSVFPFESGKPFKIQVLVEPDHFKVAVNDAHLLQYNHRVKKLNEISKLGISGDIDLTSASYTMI

GAL-3C [7] = biological target: T3, GAL-3C; test: COIN-nMS with a mixture of ten glycans (G2, G5-G13), 200 mM ammonium acetate, pH 6.9.; set-up: gene LGALS3; C-terminal carbohydrate recognition domain fragment, residues 107-250; settings: SD, n = 8; read-out: Kd (COIN-nMS), Table S3

`CC(=O)N[C@H]1[C@H](O[C@H]2[C@H](O)[C@@H](NC(C)=O)C(O)O[C@@H]2CO)O[C@H](CO)[C@@H](O[C@@H]2O[C@H](CO[C@H]3O[C@H](CO)[C@@H](O)[C@H](O)[C@@H]3O[C@@H]3O[C@H](CO)[C@@H](O[C@@H]4O[C@H](CO[C@]5(C(=O)O)C[C@H](O)[C@@H](NC(C)=O)[C@H]([C@H](O)[C@H](O)CO)O5)[C@H](O)[C@H](O)[C@H]4O)[C@H](O)[C@H]3NC(C)=O)[C@@H](O)[C@H](O[C@H]3O[C@H](CO)[C@@H](O)[C@H](O)[C@@H]3O[C@@H]3O[C@H](CO)[C@@H](O[C@@H]4O[C@H](CO[C@]5(C(=O)O)C[C@H](O)[C@@H](NC(C)=O)[C@H]([C@H](O)[C@H](O)CO)O5)[C@H](O)[C@H](O)[C@H]4O)[C@H](O)[C@H]3NC(C)=O)[C@@H]2O)[C@@H]1O` (stereo partly shown) [HexNAc4Hex5NeuAc2] showed a Kd [1] of 520 ± 200 nM.

With `CC(=O)N[C@H]1[C@H](O[C@H]2[C@H](O)[C@@H](NC(C)=O)C(O)O[C@@H]2CO[C@@H]2O[C@@H](C)[C@@H](O)[C@@H](O)[C@@H]2O)O[C@H](CO)[C@@H](O[C@@H]2O[C@H](CO[C@H]3O[C@H](CO)[C@@H](O)[C@H](O)[C@@H]3O[C@@H]3O[C@H](CO)[C@@H](O[C@@H]4O[C@H](CO[C@]5(C(=O)O)C[C@H](O)[C@@H](NC(C)=O)[C@H]([C@H](O)[C@H](O)CO)O5)[C@H](O)[C@H](O)[C@H]4O)[C@H](O)[C@H]3NC(C)=O)[C@@H](O)[C@H](O[C@H]3O[C@H](CO)[C@@H](O)[C@H](O)[C@@H]3O[C@@H]3O[C@H](CO)[C@@H](O[C@@H]4O[C@H](CO[C@]5(C(=O)O)C[C@H](O)[C@@H](NC(C)=O)[C@H]([C@H](O)[C@H](O)CO)O5)[C@H](O)[C@H](O)[C@H]4O)[C@H](O)[C@H]3NC(C)=O)[C@@H]2O)[C@@H]1O` (stereo partly shown) [HexNAc4Hex5Fuc1NeuAc2] the Kd [1] was 390 ± 80 nM.

In the case of `CC(=O)N[C@H]1[C@H](O[C@H]2[C@H](O)[C@@H](NC(C)=O)C(O)O[C@@H]2CO)O[C@H](CO)[C@@H](O[C@@H]2O[C@H](CO[C@H]3O[C@H](CO)[C@@H](O)[C@H](O)[C@@H]3O[C@@H]3O[C@H](CO)[C@@H](O[C@@H]4O[C@H](CO[C@]5(C(=O)O)C[C@H](O)[C@@H](NC(=O)CO)[C@H]([C@H](O)[C@H](O)CO)O5)[C@H](O)[C@H](O)[C@H]4O)[C@H](O)[C@H]3NC(C)=O)[C@@H](O)[C@H](O[C@H]3O[C@H](CO)[C@@H](O)[C@H](O)[C@@H]3O[C@@H]3O[C@H](CO)[C@@H](O[C@@H]4O[C@H](CO[C@]5(C(=O)O)C[C@H](O)[C@@H](NC(=O)CO)[C@H]([C@H](O)[C@H](O)CO)O5)[C@H](O)[C@H](O)[C@H]4O)[C@H](O)[C@H]3NC(C)=O)[C@@H]2O)[C@@H]1O` (stereo partly shown) [HexNAc4Hex5NeuGc2], the Kd [1] is reported as 490 ± 200 nM.

`CC(=O)N[C@H]1[C@@H](O[C@H]2[C@@H](O)[C@@H](CO)O[C@@H](O[C@H]3[C@H](O)[C@@H](NC(C)=O)C(O)O[C@@H]3CO)[C@@H]2O[C@@H]2O[C@@H](C)[C@@H](O)[C@@H](O)[C@@H]2O)O[C@H](CO)[C@H](O)[C@@H]1O` (stereo partly drawn) [G10, α-D-GalNAc(1→3)-[α-L-Fuc(1→2)]-β-D-Gal(1→4)-D-GlcNAc] showed a Kd (GAL-7 [2]) of 731 µM, a Kd (GAL-7 [3]) of 437 µM and a Kd (DC-SIGN CRD [4]) of 6.01 mM. It also gave a Kd (DC-SIGN CRD [5]) of 2.92 mM, a Kd (GAL-3C [6]) of 17.9 µM and a Kd (GAL-3C [7]) of 10.9 µM.

With `CC(=O)N[C@H]1[C@H](O[C@H]2[C@H](O)[C@@H](NC(C)=O)C(O)O[C@@H]2CO[C@@H]2O[C@@H](C)[C@@H](O)[C@@H](O)[C@@H]2O)O[C@H](CO)[C@@H](O[C@@H]2O[C@H](CO[C@H]3O[C@H](CO)[C@@H](O)[C@H](O)[C@@H]3O[C@@H]3O[C@H](CO)[C@@H](O[C@@H]4O[C@H](CO)[C@H](O)[C@H](O)[C@H]4O)[C@H](O)[C@H]3NC(C)=O)[C@@H](O)[C@H](O[C@H]3O[C@H](CO)[C@@H](O)[C@H](O)[C@@H]3O[C@@H]3O[C@H](CO)[C@@H](O[C@@H]4O[C@H](CO[C@]5(C(=O)O)C[C@H](O)[C@@H](NC(C)=O)[C@H]([C@H](O)[C@H](O)CO)O5)[C@H](O)[C@H](O)[C@H]4O)[C@H](O)[C@H]3NC(C)=O)[C@@H]2O)[C@@H]1O` (stereo partly shown) [HexNAc4Hex5Fuc1NeuAc1] the Kd [1] was 570 ± 160 nM.
